According to patent publication US20260256792A1, “TREATMENT OF CHRONIC SPONTANEOUS URTICARIA BY ADMINISTERING (R)-2-[3-[4-AMINO-3-(2-FLUORO-4-PHENOXY-PHENYL)PYRAZOLO[3,4-D]PYRIMIDIN-1-YL]PIPERIDINE-1-CARBONYL]-4-METHYL-4-[4-(OXETAN-3-YL)PIPERAZIN-1-YL]PENT-2-ENENITRILE” (priority 2023, published 2026):

System: moderate-to-severe chronic spontaneous urticaria (CSU)
Test: Phase 2 CSU study: Patient Global Impression of Change (PGIC)
Format: in vivo, human
Settings: for PGIC Mean (SD) / PGIC Median / PGIC category A little better, patients / PGIC category A little worse, patients / PGIC category Moderately better, patients / PGIC category Moderately worse, patients / PGIC category No change, patients / PGIC category Very much better, patients / PGIC category Very much worse, patients: omalizumab-naïve population; for PGIC LS Mean (SE) / PGIC LS Mean Diff vs. placebo (95% CI): omalizumab-naïve, ANCOVA
Text: The study comprises a 12 week, randomized, double-blind, placebo-controlled, multi-center, dose-ranging efficacy and safety phase, followed by a 40 week open label extension (OLE) phase (see FIG. 1).
The study consists of three phases and an optional OLE phase.
The PGIS is a 1-item measure that asks participants to provide a self-assessment of their overall CSU severity for the past week on a 4 point scale. Response choices are: “None”, “Mild”, “Moderate” and “Severe”. The PGIC is a 1-item measure that asks the participant to provide a self-assessment of overall change in their CSU since the participant started taking the study medication on a 7-point scale. The response options range from “Very Much Better” to “Very Much Worse.” Patients were to complete questionnaires for the 2 items during their site visit.

## CC(C)(C=C(C#N)C(=O)N1CCC[C@@H](n2nc(-c3ccc(Oc4ccccc4)cc3F)c3c(N)ncnc32)C1)N1CCN(C2COC2)CC1 [rilzabrutinib, (R)-2-[3-[4-amino-3-(2-fluoro-4-phenoxy-phenyl)pyrazolo[3,4-d]pyrimidin-1-yl]piperidine-1-carbonyl]-4-methyl-4-[4-(oxetan-3-yl)piperazin-1-yl]pent-2-enenitrile]
400 mg TID
  quality of life as measured by PGIC: improvement
Week 2, 400 mg BID
  PGIC Mean (SD): 1.61
  PGIC Median: 1.00
  PGIC category A little better, patients: 6 (19.4)
  PGIC category A little worse, patients: 1 (3.2)
  PGIC category Moderately better, patients: 5 (16.1)
  PGIC category Moderately worse, patients: 1 (3.2)
  PGIC category No change, patients: 6 (19.4)
  PGIC category Very much better, patients: 11 (35.5)
  PGIC category Very much worse, patients: 1 (3.2)
  PGIC LS Mean (SE): 1.53
  PGIC LS Mean Diff vs. placebo (95% CI): −0.81
Week 2, 400 mg QPM
  PGIC Mean (SD): 2.33
  PGIC Median: 3.00
  PGIC category A little better, patients: 7 (21.2)
  PGIC category A little worse, patients: 1 (3.0)
  PGIC category Moderately better, patients: 5 (15.2)
  PGIC category Moderately worse, patients: 0
  PGIC category No change, patients: 16 (48.5)
  PGIC category Very much better, patients: 3 (9.1)
  PGIC category Very much worse, patients: 1 (3.0)
  PGIC LS Mean (SE): 2.12
  PGIC LS Mean Diff vs. placebo (95% CI): −0.22
Week 2, 400 mg TID
  PGIC Mean (SD): 1.42
  PGIC Median: 1.00
  PGIC category A little better, patients: 7 (21.2)
  PGIC category A little worse, patients: 0
  PGIC category Moderately better, patients: 7 (21.2)
  PGIC category Moderately worse, patients: 1 (3.0)
  PGIC category No change, patients: 5 (15.2)
  PGIC category Very much better, patients: 12 (36.4)
  PGIC category Very much worse, patients: 1 (3.0)
  PGIC LS Mean (SE): 1.43
  PGIC LS Mean Diff vs. placebo (95% CI): −0.91
Week 4, 400 mg BID
  PGIC Mean (SD): 1.67
  PGIC Median: 1.00
  PGIC category A little better, patients: 6 (18.2)
  PGIC category A little worse, patients: 2 (6.1)
  PGIC category Moderately better, patients: 8 (24.2)
  PGIC category Moderately worse, patients: 0
  PGIC category No change, patients: 7 (21.2)
  PGIC category Very much better, patients: 9 (27.3)
  PGIC category Very much worse, patients: 1 (3.0)
  PGIC LS Mean (SE): 1.59
  PGIC LS Mean Diff vs. placebo (95% CI): −0.49
Week 4, 400 mg QPM
  PGIC Mean (SD): 2.24
  PGIC Median: 2.00
  PGIC category A little better, patients: 10 (29.4)
  PGIC category A little worse, patients: 5 (14.7)
  PGIC category Moderately better, patients: 4 (11.8)
  PGIC category Moderately worse, patients: 1 (2.9)
  PGIC category No change, patients: 7 (20.6)
  PGIC category Very much better, patients: 6 (17.6)
  PGIC category Very much worse, patients: 1 (2.9)
  PGIC LS Mean (SE): 2.06
  PGIC LS Mean Diff vs. placebo (95% CI): −0.02
Week 4, 400 mg TID
  PGIC Mean (SD): 1.14
  PGIC Median: 1.00
  PGIC category A little better, patients: 6 (20.7)
  PGIC category A little worse, patients: 1 (3.4)
  PGIC category Moderately better, patients: 5 (17.2)
  PGIC category Moderately worse, patients: 0
  PGIC category No change, patients: 4 (13.8)
  PGIC category Very much better, patients: 13 (44.8)
  PGIC category Very much worse, patients: 0
  PGIC LS Mean (SE): 1.18
  PGIC LS Mean Diff vs. placebo (95% CI): −0.90
Week 8, 400 mg BID
  PGIC Mean (SD): 1.42
  PGIC Median: 1.00
  PGIC category A little better, patients: 3 (9.1)
  PGIC category A little worse, patients: 1 (3.0)
  PGIC category Moderately better, patients: 8 (24.2)
  PGIC category Moderately worse, patients: 1 (3.0)
  PGIC category No change, patients: 6 (18.2)
  PGIC category Very much better, patients: 13 (39.4)
  PGIC category Very much worse, patients: 1 (3.0)
  PGIC LS Mean (SE): 1.43
  PGIC LS Mean Diff vs. placebo (95% CI): −0.41
Week 8, 400 mg QPM
  PGIC Mean (SD): 2.21
  PGIC Median: 2.00
  PGIC category A little better, patients: 9 (27.3)
  PGIC category A little worse, patients: 2 (6.1)
  PGIC category Moderately better, patients: 6 (18.2)
  PGIC category Moderately worse, patients: 1 (3.0)
  PGIC category No change, patients: 10 (30.3)
  PGIC category Very much better, patients: 4 (12.1)
  PGIC category Very much worse, patients: 1 (3.0)
  PGIC LS Mean (SE): 2.10
  PGIC LS Mean Diff vs. placebo (95% CI): 0.27
Week 8, 400 mg TID
  PGIC Mean (SD): 0.90
  PGIC Median: 1.00
  PGIC category A little better, patients: 2 (6.7)
  PGIC category A little worse, patients: 1 (3.3)
  PGIC category Moderately better, patients: 10 (33.3)
  PGIC category Moderately worse, patients: 0
  PGIC category No change, patients: 3 (10.0)
  PGIC category Very much better, patients: 14 (46.7)
  PGIC category Very much worse, patients: 0
  PGIC LS Mean (SE): 0.98
  PGIC LS Mean Diff vs. placebo (95% CI): −0.86
Week 12, 400 mg BID
  PGIC Mean (SD): 1.03
  PGIC Median: 0.50
  PGIC category A little better, patients: 1 (3.3)
  PGIC category A little worse, patients: 1 (3.3)
  PGIC category Moderately better, patients: 8 (26.7)
  PGIC category Moderately worse, patients: 1 (3.3)
  PGIC category No change, patients: 4 (13.3)
  PGIC category Very much better, patients: 15 (50.0)
  PGIC category Very much worse, patients: 0
  PGIC LS Mean (SE): 1.17
  PGIC LS Mean Diff vs. placebo (95% CI): −0.46
Week 12, 400 mg QPM
  PGIC Mean (SD): 2.12
  PGIC Median: 2.00
  PGIC category A little better, patients: 7 (20.6)
  PGIC category A little worse, patients: 2 (5.9)
  PGIC category Moderately better, patients: 6 (17.6)
  PGIC category Moderately worse, patients: 1 (2.9)
  PGIC category No change, patients: 11 (32.4)
  PGIC category Very much better, patients: 6 (17.6)
  PGIC category Very much worse, patients: 1 (2.9)
  PGIC LS Mean (SE): 2.00
  PGIC LS Mean Diff vs. placebo (95% CI): 0.38
Week 12, 400 mg TID
  PGIC Mean (SD): 0.97
  PGIC Median: 0.00
  PGIC category A little better, patients: 4 (12.9)
  PGIC category A little worse, patients: 2 (6.5)
  PGIC category Moderately better, patients: 5 (16.1)
  PGIC category Moderately worse, patients: 0
  PGIC category No change, patients: 3 (9.7)
  PGIC category Very much better, patients: 17 (54.8)
  PGIC category Very much worse, patients: 0
  PGIC LS Mean (SE): 0.98
  PGIC LS Mean Diff vs. placebo (95% CI): −0.64
